Laboratory results reported in the supplement of paper PMC10307832.

How the values were obtained:
Test in all cases: relative viability (nuclei count vs DMSO), 5 days (fraction); higher = more cells survive
[1] = compound: COC1=CC=C(C=C1)CN2C=CC3=C2C=C(C=C3)C(=O)NO
In short: (§1)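 For viability, nuclei in each treated well were divided by nuclei in vehicle wells and the median across plates was taken. Lung cancer cell lines in 1536-well plates were pinned with five library-drug doses (not always all listed) spaced by √10, cultured 5 days without medium change, and imaged at 4× after Hoechst staining, with plates passing only at control CV below 25% and at least one doubling.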

Veliparib = compound: C[C@]1(c2nc3c(C(N)=O)cccc3[nH]2)CCCN1 [Veliparib]
In short: as §1

[2] = compound: COC1=CC=C(C=C1)CN2C=CC3=C2C=C(C=C3)C(=O)NO + Cc1nc(NC(=O)N2CCC[C@H]2C(N)=O)sc1-c1ccnc(C(C)(C)C(F)(F)F)c1 [Alpelisib] (partner 2 µM)
In short: (§2)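 Lung cancer cell lines were seeded in 1536-well plates and dosed by pin tool the next day, with either a single drug or a fixed anchor-drug dose combined with five library-drug doses (not always all listed) spaced in √10 steps. Five days later, one step fixed the cells and stained their nuclei (final 0.05% Triton X-100, 1% formaldehyde, 1 ug/ml Hoechst), and nuclei were counted on 4× images. Relative viability is the nuclei count in treated wells divided by the count in vehicle wells, and each value is the median of duplicate plates.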

Veliparib + Pemetrexed = compound: C[C@]1(c2nc3c(C(N)=O)cccc3[nH]2)CCCN1 [Veliparib] + Nc1nc2[nH]cc(CCc3ccc(C(=O)N[C@@H](CCC(=O)O)C(=O)O)cc3)c2c(=O)[nH]1 [Pemetrexed] (partner 0.2 µM)
In short: as §2

## COR-L 105
[1]; 0.08 µM
  relative viability: 0.679
[1]; 0.253 µM
  relative viability: 0.928
[1]; 0.8 µM
  relative viability: 0.936
[1]; 2.53 µM
  relative viability: 0.799
[1]; 8 µM
  relative viability: 0.565
Veliparib; 0.02 µM
  relative viability: 0.843
Veliparib; 0.06325 µM
  relative viability: 0.794
Veliparib; 0.2 µM
  relative viability: 0.895
Veliparib; 0.6325 µM
  relative viability: 0.835
Veliparib; 2 µM
  relative viability: 1.08
[2]; first compound 0.253 µM
  relative viability: 0.93
[2]; first compound 0.8 µM
  relative viability: 1.04
[2]; first compound 2.53 µM
  relative viability: 0.942
[2]; first compound 8 µM
  relative viability: 0.929
Veliparib + Pemetrexed; first compound 0.02 µM
  relative viability: 1.27
Veliparib + Pemetrexed; first compound 0.06325 µM
  relative viability: 1.09
Veliparib + Pemetrexed; first compound 0.2 µM
  relative viability: 1.27
Veliparib + Pemetrexed; first compound 0.6325 µM
  relative viability: 1.19
Veliparib + Pemetrexed; first compound 2 µM
  relative viability: 1.01

## EKVX
[1]; 0.08 µM
  relative viability: 0.782
[1]; 0.253 µM
  relative viability: 1.02
[1]; 0.8 µM
  relative viability: 0.991
[1]; 2.53 µM
  relative viability: 1.05
[1]; 8 µM
  relative viability: 0.957
Veliparib; 0.02 µM
  relative viability: 0.744
Veliparib; 0.06325 µM
  relative viability: 0.93
Veliparib; 0.2 µM
  relative viability: 0.94
Veliparib; 0.6325 µM
  relative viability: 1
Veliparib; 2 µM
  relative viability: 0.972
[2]; first compound 0.08 µM
  relative viability: 0.749
[2]; first compound 0.253 µM
  relative viability: 0.856
[2]; first compound 0.8 µM
  relative viability: 0.878
[2]; first compound 2.53 µM
  relative viability: 0.91
[2]; first compound 8 µM
  relative viability: 0.897
Veliparib + Pemetrexed; first compound 0.06325 µM
  relative viability: 0.391
Veliparib + Pemetrexed; first compound 0.2 µM
  relative viability: 0.421
Veliparib + Pemetrexed; first compound 0.6325 µM
  relative viability: 0.461
Veliparib + Pemetrexed; first compound 2 µM
  relative viability: 0.444

## EMC-BAC-2
[1]; 0.08 µM
  relative viability: 0.88
[1]; 0.8 µM
  relative viability: 1.08
[1]; 2.53 µM
  relative viability: 0.979
[1]; 8 µM
  relative viability: 0.873
Veliparib; 0.02 µM
  relative viability: 1.01
Veliparib; 0.06325 µM
  relative viability: 0.786
Veliparib; 0.2 µM
  relative viability: 1.09
Veliparib; 0.6325 µM
  relative viability: 1.11
Veliparib; 2 µM
  relative viability: 0.965
[2]; first compound 0.08 µM
  relative viability: 0.633
[2]; first compound 0.253 µM
  relative viability: 0.749
[2]; first compound 0.8 µM
  relative viability: 0.799
[2]; first compound 2.53 µM
  relative viability: 0.77
[2]; first compound 8 µM
  relative viability: 0.71
Veliparib + Pemetrexed; first compound 0.02 µM
  relative viability: 0.492
Veliparib + Pemetrexed; first compound 0.06325 µM
  relative viability: 0.408
Veliparib + Pemetrexed; first compound 0.2 µM
  relative viability: 0.438
Veliparib + Pemetrexed; first compound 0.6325 µM
  relative viability: 0.442
Veliparib + Pemetrexed; first compound 2 µM
  relative viability: 0.502

## EPLC-272H
[1]; 0.08 µM
  relative viability: 0.753
[1]; 0.253 µM
  relative viability: 0.871
[1]; 0.8 µM
  relative viability: 1
[1]; 2.53 µM
  relative viability: 0.974
[1]; 8 µM
  relative viability: 0.766
Veliparib; 0.06325 µM
  relative viability: 0.855
Veliparib; 0.2 µM
  relative viability: 1.02
Veliparib; 0.6325 µM
  relative viability: 1.01
Veliparib; 2 µM
  relative viability: 0.938
[2]; first compound 0.08 µM
  relative viability: 0.875
[2]; first compound 0.253 µM
  relative viability: 0.976
[2]; first compound 0.8 µM
  relative viability: 0.985
[2]; first compound 2.53 µM
  relative viability: 0.864
[2]; first compound 8 µM
  relative viability: 0.875
Veliparib + Pemetrexed; first compound 0.06325 µM
  relative viability: 0.273
Veliparib + Pemetrexed; first compound 0.2 µM
  relative viability: 0.359
Veliparib + Pemetrexed; first compound 0.6325 µM
  relative viability: 0.283
Veliparib + Pemetrexed; first compound 2 µM
  relative viability: 0.418

## H3255
[1]; 0.08 µM
  relative viability: 0.992
[1]; 0.253 µM
  relative viability: 0.957
[1]; 0.8 µM
  relative viability: 0.948
[1]; 2.53 µM
  relative viability: 0.968
[1]; 8 µM
  relative viability: 0.842
Veliparib; 0.02 µM
  relative viability: 0.919
Veliparib; 0.06325 µM
  relative viability: 0.92
Veliparib; 0.2 µM
  relative viability: 0.962
Veliparib; 0.6325 µM
  relative viability: 0.951
Veliparib; 2 µM
  relative viability: 0.992
[2]; first compound 0.08 µM
  relative viability: 0.629
[2]; first compound 0.253 µM
  relative viability: 0.722
[2]; first compound 0.8 µM
  relative viability: 0.679
[2]; first compound 2.53 µM
  relative viability: 0.717
[2]; first compound 8 µM
  relative viability: 0.621
Veliparib + Pemetrexed; first compound 0.02 µM
  relative viability: 0.541
Veliparib + Pemetrexed; first compound 0.06325 µM
  relative viability: 0.561
Veliparib + Pemetrexed; first compound 0.2 µM
  relative viability: 0.548
Veliparib + Pemetrexed; first compound 0.6325 µM
  relative viability: 0.53
Veliparib + Pemetrexed; first compound 2 µM
  relative viability: 0.629

## HARA
[1]; 0.253 µM
  relative viability: 1.02
[1]; 0.8 µM
  relative viability: 1.08
[1]; 2.53 µM
  relative viability: 0.89
[1]; 8 µM
  relative viability: 0.884
Veliparib; 0.02 µM
  relative viability: 0.858
Veliparib; 0.06325 µM
  relative viability: 0.939
Veliparib; 0.2 µM
  relative viability: 0.955
Veliparib; 0.6325 µM
  relative viability: 0.979
Veliparib; 2 µM
  relative viability: 0.915
[2]; first compound 0.08 µM
  relative viability: 0.149
[2]; first compound 0.253 µM
  relative viability: 0.851
[2]; first compound 0.8 µM
  relative viability: 0.765
[2]; first compound 2.53 µM
  relative viability: 0.917
[2]; first compound 8 µM
  relative viability: 0.693
Veliparib + Pemetrexed; first compound 0.02 µM
  relative viability: 0.254
Veliparib + Pemetrexed; first compound 0.2 µM
  relative viability: 0.219
Veliparib + Pemetrexed; first compound 0.6325 µM
  relative viability: 0.265
Veliparib + Pemetrexed; first compound 2 µM
  relative viability: 0.261

## HCC-15
[1]; 0.08 µM
  relative viability: 0.883
[1]; 0.253 µM
  relative viability: 0.965
[1]; 0.8 µM
  relative viability: 1.11
[1]; 2.53 µM
  relative viability: 1.01
[1]; 8 µM
  relative viability: 0.935
Veliparib; 0.02 µM
  relative viability: 0.89
Veliparib; 0.06325 µM
  relative viability: 0.952
Veliparib; 0.2 µM
  relative viability: 1.04
Veliparib; 0.6325 µM
  relative viability: 0.985
Veliparib; 2 µM
  relative viability: 1.05
[2]; first compound 0.08 µM
  relative viability: 0.74
[2]; first compound 0.253 µM
  relative viability: 0.989
[2]; first compound 0.8 µM
  relative viability: 0.898
[2]; first compound 2.53 µM
  relative viability: 0.93
[2]; first compound 8 µM
  relative viability: 0.853
Veliparib + Pemetrexed; first compound 0.02 µM
  relative viability: 0.219
Veliparib + Pemetrexed; first compound 0.06325 µM
  relative viability: 0.214
Veliparib + Pemetrexed; first compound 0.2 µM
  relative viability: 0.228
Veliparib + Pemetrexed; first compound 0.6325 µM
  relative viability: 0.2
Veliparib + Pemetrexed; first compound 2 µM
  relative viability: 0.239

## HCC-44
[1]; 0.08 µM
  relative viability: 0.916
[1]; 0.253 µM
  relative viability: 0.923
[1]; 0.8 µM
  relative viability: 1.03
[1]; 2.53 µM
  relative viability: 1.05
[1]; 8 µM
  relative viability: 1
Veliparib; 0.02 µM
  relative viability: 0.971
Veliparib; 0.06325 µM
  relative viability: 0.798
Veliparib; 0.2 µM
  relative viability: 0.958
Veliparib; 0.6325 µM
  relative viability: 1.01
Veliparib; 2 µM
  relative viability: 0.94
[2]; first compound 0.08 µM
  relative viability: 0.732
[2]; first compound 0.253 µM
  relative viability: 0.901
[2]; first compound 0.8 µM
  relative viability: 0.786
[2]; first compound 2.53 µM
  relative viability: 0.823
[2]; first compound 8 µM
  relative viability: 0.778
Veliparib + Pemetrexed; first compound 0.02 µM
  relative viability: 0.606
Veliparib + Pemetrexed; first compound 0.06325 µM
  relative viability: 0.656
Veliparib + Pemetrexed; first compound 0.2 µM
  relative viability: 0.655
Veliparib + Pemetrexed; first compound 0.6325 µM
  relative viability: 0.59
Veliparib + Pemetrexed; first compound 2 µM
  relative viability: 0.63
